Holding throughout (assay type): cell-based
The subject of test [1] is HUV-EC-C cells (human umbilical vein endothelial cells). The experiment in a line: HUV-EC-C Assay, VEGF-stimulated [3H] thymidine incorporation. As to conditions: Mitogenesis in Endothelial Cells. On the technique in general: Uptake of a labelled nucleoside into DNA is a usual measure of proliferation.
Test [2] has the same test system. The experiment in a line: HUV-EC-C Assay, a-FGF (ECGF)-stimulated [3H] thymidine incorporation. As to conditions: Mitogenesis in Endothelial Cells. The method, then: The following protocol may also be used to measure the composition's activity:
1. […] After cells have detached from the flask, add an equal volume of assay medium and transfer to a 50 ml sterile centrifuge tube (Fisher Scientific; catalogue no. 05-539-6).
2. Wash the cells with about 35 ml assay medium in the 50 ml sterile centrifuge, tube by adding the assay medium, centrifuge for 10 minutes at approximately 200× g, aspirate the supernatant, and resuspend with 35 ml D-PBS. Repeat the wash two more times with D-PBS, resuspend the cells in about 1 ml assay medium/15 cm^2 of tissue culture flask. Assay medium consists of F12K medium (Gibco BRL; catalogue no. 21127-014)+0.5% heat-inactivated fetal bovine serum. Count the cells with a Coulter Counter.RTM.v Coulter Electronics, Inc.) and add assay medium to the cells to obtain a concentration of 0.8-1.0×10^5 cells/ml.
3. Add cells to 96-well flat-bottom plates at 100 μl/well or 0.8-1.0×10^4 cells/well; incubate about 24 h at 37° C., 5% CO2.
1. Make up two-fold drug titrations in separate 96-well plates, generally 50 μM on down to 0 μM. Use the same assay medium as mentioned in day 0, step 2 above. Titrations are made by adding […] of drug at 200 μM (4× the final well concentration) to the top well of a particular plate column. Since the stock drug concentration is usually 20 mM in DMSO, the 200 μM drug concentration contains 2% DMSO. Therefore, diluent made up to 2% DMSO in assay medium (F12K+0.5% fetal bovine serum) is used as diluent for the drug titrations in order to dilute the drug but keep the DMSO concentration constant. Add this diluent to the remaining wells in the column at 60 μl/well. Take 60 μl from the 120 μl of 200 μM drug dilution in the top well of the column and mix with the 60 μl in the second well of the column. Take 60 μl from this well and mix with the 60 μl in the third well of the column, and so on until two-fold titrations are completed. When the next-to-the-last well is mixed, take 60 μl of the 120 μl in this well and discard it. Leave the last well with 60 μl of DMSO/media diluent as a non-drug-containing control. Make 9 columns of titrated drug, enough for triplicate wells each for 1) VEGF (obtained from Pepro Tech Inc., catalogue no. 100-200, 2) endothelial cell growth factor (ECGF) (also known as acidic fibroblast growth factor, or aFGF) (obtained from Boehringer Mannheim Biochemica, catalogue no. 1439 600), and assay media control. ECGF comes as a preparation with sodium heparin.
2. Transfer 50 μl/well of the drug dilutions to the 96-well assay plates containing the 0.8-1.0×10^4 cells/100 μl/well of the HUV-EC-C cells from day 0 and […] incubate ~2 h at 37° C., 5% CO2.
3. In triplicate, add 50 μl/well of 80 ng/ml VEGF, 20 ng/ml ECGF, or media control to each drug condition. As with the drugs, the growth factor concentrations are 4× the desired final concentration. Use the assay media from day 0 step 2 to make the concentrations of growth factors. Incubate approximately 24 hours at 37° C., 5% CO2. Each well will have 50 μl drug dilution, 50 μl growth factor or media, and 100 ul cells,=200 ul/well total. Thus the 4× concentrations of drugs and growth factors become 1× once everything has been added to the wells.
1. Add ^3H-thymidine (Amersham; catalogue no. TRK-686) at 1 μCi/well (10 μl/well of 100 μCi/ml solution made up in RPMI media+10% heat-inactivated fetal bovine serum) and incubate about 24 h at 37° C., 5% CO2.
Note: ^3H-thymidine is made up in RPMI media because all of the other applications for which we use the ^3H-thymidine involve experiments done in RPMI. The media difference at this step is probably not significant. RPMI was obtained from Gibco BRL, catalogue no. 11875-051.
1. Freeze plates overnight at −20° C.
1. Thaw plates and harvest with a 96-well plate harvester (Tomtec Harvester 96.RTM.) onto filter mats (Wallac; catalogue no. 1205-401); read counts on a Wallac Betaplate™ liquid scintillation counter.

A further test has as its system FGFR. The experiment in a line: FGF ligand-induced BrdU incorporation, mitogenesis in 3T3/EGFR cells.

As a reminder, the IC50 is the concentration that gives 50% inhibition. Low values mean greater potency in that assay, high ones weaker potency in that assay. For the molecule `O=C1Nc2ccccc2C1=Cc1sccc1Br` [SU5418, 3-[(3-Bromothiene-2-yl)methylene]-2-indolinone], the 50% inhibitory concentration (IC50) in test [1] (Homo sapiens, HUVEC) is 13.6 µM; in test [2] (Homo sapiens, HUVEC), 40 µM. On to `O=C1Nc2ccccc2C1=Cc1ccc(-c2cc(C(F)(F)F)cc(C(F)(F)F)c2)o1` [SU5217], for which the IC50 in test [1] stood at 9.6 µM; in test [2], 10.5 µM. For the molecule `CSc1ccc(C=C2C(=O)Nc3ccccc32)s1` [SU5419, 3-[(2-Methylmercaptothien-5-yl)methylene]-2-indolinone], the IC50 in test [1] (Homo sapiens, HUVEC) was determined as 0.7 µM. For the molecule `Cc1cc(C=C2C(=O)Nc3ccccc32)[nH]n1` [SU5472, 3-[(3-Methylpyrazol-5-yl)methylene]-2-indolinone], the half-inhibitory concentration (IC50) in test [1] (Homo sapiens, HUVEC) amounted to 2 µM; in test [2] (Homo sapiens, HUVEC) it was 5 µM. The matching figures for `CCc1ccc(C=C2C(=O)Nc3ccccc32)s1` [SU5451, 3-[(2-Ethylthien-5-yl)methylene]-2-indolinone]: 1.2 µM and 30 µM. The matching figures for `CCOC(=O)c1c[nH]c(C=C2C(=O)Nc3ccccc32)c1C` [SU5463]: 0.14 µM and 7.9 µM. Taken in the same sequence, the figures for `COc1cccc(C=C2C(=O)Nc3ccccc32)c1OC` [SU4794, 3-(2,3-dimethoxybenzylidenyl)-2-indolinone] were 4.8 µM and 35.7 µM. Regarding `CCOC(=O)c1c(C)[nH]c(C=C2C(=O)Nc3ccccc32)c1C` [SU5408, 3-[(2,4-Dimethyl-3-ethoxycarbonylpyrrol-5-yl)methylene]-2-indolinone], the IC50 in test [1] (Homo sapiens, HUVEC) is below 0.8 µM; in test [2] (Homo sapiens, HUVEC), 22.7 µM. Turning to `O=C1Nc2ccccc2C1=Cc1ccc([N+](=O)[O-])o1` [SU5432, 3-[(2-Nitrofuran-5-yl)methylene]-2-indolinone], the IC50 in test [1] (Homo sapiens, HUVEC) was 0.16 µM; in test [2] (Homo sapiens, HUVEC), 0.14 µM.

As to `CCOC(=O)CCc1c(C=C2C(=O)Nc3ccccc32)[nH]c(C(=O)OCC)c1CC(=O)OCC` [SU5465, 3-[(5-Ethoxycarbonyl-3-ethoxycarbonylethyl-4-ethoxylcarbonylmethylpyrrol-2-yl)methylene]-2-indolinone], the IC50 with FGFR stood at 25 µM. Take `COc1ccccc1C=C1C(=O)Nc2ccccc21` [SU4949, 3-(2-Methoxybenzylidenyl)-2-indolinone]: the IC50 was determined as 3.4 µM in test [1] and 3.7 µM in test [2]. In the case of `O=C1Nc2ccccc2C1=Cc1ccc(Cl)c(Cl)c1` [SU5201, 3-(3,4-Dichlorobenzylidenyl)-2-indolinone], the concentration for half-maximal inhibition (IC50) in test [1] came out at 2.5 µM; in test [2] it was 2.3 µM. With `O=C1Nc2ccccc2C1=Cc1ccc(Br)o1` [SU5438, 3-[(5-Bromofuran-2-yl)methylene]-2-indolinone], the IC50 in test [1] (Homo sapiens, HUVEC) was found to be 39.8 µM; in test [2] (Homo sapiens, HUVEC), 33 µM. Taken in the same sequence, the figures for `O=C1Nc2ccccc2C1=Cc1cccs1` [SU5208, 3-[(Thien-2-yl)methylene]-2-indolinone] were 2.9 µM and 130 µM. As to `COc1ccc(Br)cc1C=C1C(=O)Nc2ccccc21` [SU4796, 3-(3-bromo-6-methoxybenzylidenyl)-2-indolinone], the concentration for half-maximal inhibition (IC50) in test [1] was determined as 30.7 µM; in test [2], 35.8 µM. Regarding `Cc1c(C=O)[nH]c(C=C2C(=O)Nc3ccccc32)c1C` [SU5405, 3-[(3,4-Dimethyl-2-formylpyrrole-5-yl)methylene)-2-indolinone], the IC50 in test [1] (Homo sapiens, HUVEC) came to 0.9 µM; in test [2] (Homo sapiens, HUVEC), 0.6 µM. Regarding `O=C1Nc2ccccc2C1=Cc1cccn1-c1ccc(Cl)cc1` [SU5462], the IC50 in test [1] stood at 0.5 µM; in test [2], 0.8 µM.

In the case of `CN(C)c1ccc(C=C2C(=O)N(C)c3ccccc32)cc1` [SU4952, 3-(4-Dimethylaminobenzylidenyl)-1-methyl-2-indolinone], the half-inhibitory concentration (IC50) was 25.6 µM in test [1] (Homo sapiens, HUVEC) and 19.3 µM in test [2] (Homo sapiens, HUVEC).

In test [2], `O=C1Nc2ccc(Cl)cc2C1=Cc1ccc(Br)cc1` [SU4972, 3-(4-Bromobenzylidenyl)-5-chloro-2-indolinone] showed an IC50 of 1.4 µM. For `Cn1cccc1C=C1C(=O)Nc2ccccc21` [SU5464, 3-[(1-Methylpyrrol-2-yl)methylene]-2-indolinone], the half-maximal inhibitory concentration (IC50) in test [1] (Homo sapiens, HUVEC) came out at 3.8 µM; in test [2] (Homo sapiens, HUVEC) it was 12.9 µM. For `CN(C)c1c(C=C2C(=O)Nc3ccccc32)cc(C=C2C(=O)Nc3ccccc32)c(N(C)C)c1C#N` [SU5218, 2,6-Di-(dimethylamino)-3,5-di-[(indolin-2-one-3-ylidenyl)methyl]-phenylcyanide], the IC50 in test [1] (Homo sapiens, HUVEC) was determined as 2.4 µM; in test [2] (Homo sapiens, HUVEC), 2.7 µM. Take `Cc1cnc(C=C2C(=O)Nc3ccccc32)[nH]1` [SU5468, 3-[(5-Methylimidazol-2-yl)methylene]-2-indolinone]: the IC50 in test [1] (Homo sapiens, HUVEC) worked out at 0.54 µM; in test [2] (Homo sapiens, HUVEC) it was 8.7 µM. In test [1] (Homo sapiens, HUVEC), `O=C1Nc2ccccc2C1=Cc1ccco1` [SU5429, 3-[(Furan-2-yl)methylene]-2-indolinone] returned an IC50 of 27.6 µM.

Consider `Cc1cnc(C=C2C(=O)Nc3ccccc32)s1` [SU5469, 3-[(5-Methylthiazol-2-yl)methylene]-2-indolinone], for which the IC50 with FGFR was determined as 15 µM. On to `O=C1Nc2ccccc2C1=Cc1cccn1-c1cc(Cl)cc(Cl)c1` [SU5461, 3-{[1-(3,5-Dichlorophenyl)pyrrol-2-yl]methylene}-2-indolinone], for which the IC50 is below 0.07 µM in test [1] (Homo sapiens, HUVEC) and below 0.07 µM in test [2] (Homo sapiens, HUVEC). Regarding `O=C1Nc2ccccc2C1=Cc1ccc(F)cc1` [SU5205, 3-(4-Fluorobenzylidenyl)-2-indolinone], the IC50 in test [1] (Homo sapiens, HUVEC) was 5.1 µM; in test [2] (Homo sapiens, HUVEC), 11.8 µM.

For the molecule `CCCCN(CCCC)c1ccc(C=C2C(=O)Nc3ccccc32)cc1` [SU4979, 3-(4-Di-n-butylaminobenzylidenyl)-2-indolinone], the IC50 in test [1] (Homo sapiens, HUVEC) was 4.4 µM; in test [2] (Homo sapiens, HUVEC) it was 4.9 µM.

As for `Cc1c[nH]c(C=C2C(=O)Nc3ccccc32)c1C` [SU5406, 3-[(3,4-Dimethylpyrrol-2-yl)methylene]-2-indolinone], the IC50 in test [1] (Homo sapiens, HUVEC) is below 0.8 µM. `O=C1Nc2ccccc2C1=Cc1ccco1` [SU4798, 3-[(furan-2-yl)methylene]-2-indolinone] registered a 50% inhibitory concentration (IC50) in test [1] (Homo sapiens, HUVEC) of 43.2 µM. Still for that read-out and setting: for `CC(=O)Nc1ccc(C=C2C(=O)Nc3ccccc32)cc1` [SU4799, 3-(4-acetamidobenzylidenyl)-2-indolinone] the value was 19.9 µM.

Regarding `O=C1Nc2ccccc2C1=Cc1ccc(I)o1` [SU5409], the IC50 in test [1] came to 26 µM. Turning to `CCc1c(C=C2C(=O)Nc3ccccc32)[nH]c(C(=O)O)c1C` [SU5455, 3-[(5-Carboxy-3-ethyl-4-methylpyrrol-2-yl)methylene]-2-indolinone], the concentration for half-maximal inhibition (IC50) was 20 µM in test [1] (Homo sapiens, HUVEC) and 20 µM in test [2] (Homo sapiens, HUVEC). On to `CCc1c(C)[nH]c(C=C2C(=O)Nc3ccccc32)c1C` [SU5477, 3-[(4-Ethyl-3,5-dimethylpyrrol-2-yl)methylene]-2-indolinone], for which the IC50 in test [1] (Homo sapiens, HUVEC) turned out to be 0.05 µM; in test [2] (Homo sapiens, HUVEC), 37.8 µM. Taken in the same sequence, the figures for `CCOC(=O)CCc1c(C(=O)OCC)[nH]c(C=C2C(=O)Nc3ccccc32)c1CC(=O)OCC` [SU5454, 3-[(5-Ethoxycarbonyl-4-ethoxycarbonylethyl-3-ethoxycarbonylmethylpyrrol-2-yl)methylene]-2-indolinone] were 3.8 µM and 3.4 µM.

With `Cc1cc(C=C2C(=O)Nc3ccccc32)oc1C` [SU5421, 3-[(2,3-Dimethylfuran-5-yl)methylene]-2-indolinone], in test [1] (Homo sapiens, HUVEC), the IC50 is 11.4 µM.

These data come from patent publication US20030119895A1, “Methods using a combination of a 3-heteroaryl-2-indolinone and a cyclooxygenase-2 inhibitor for the treatment of neoplasia” (Pharmacia Corporation, priority 1998, published 2003).
